From patent US20250213555A1, “SUBSTITUTED TETRAHYDROFURAN ANALOGS AS MODULATORS OF SODIUM CHANNELS” (VERTEX PHARMACEUTICALS INCORPORATED, priority 2021, published 2025)

Biological target: human Nav 1.8 (Homo sapiens, UniProt Q9Y5Y9)
Assay: E-VIPR assay detecting and measuring Nav inhibition properties
Type: cell-based
Details: HEK cells expressing a truncated form of human Nav 1.8; compound numbers without "*" (not marked as run in the presence of human serum); read-out: measured IC50 value in the E-VIPR Assay
Summary of the method: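 Nav inhibition was read by E-VIPR: cells were electrically stimulated while coumarin/oxonol FRET emissions were recorded. Cells were HEK expressing a truncated human Nav 1.8 and co-transduced with KIR2.1, and were assayed in 25% final human serum.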

Chain of human Nav 1.8 (Q9Y5Y9 126-399 limits assumed): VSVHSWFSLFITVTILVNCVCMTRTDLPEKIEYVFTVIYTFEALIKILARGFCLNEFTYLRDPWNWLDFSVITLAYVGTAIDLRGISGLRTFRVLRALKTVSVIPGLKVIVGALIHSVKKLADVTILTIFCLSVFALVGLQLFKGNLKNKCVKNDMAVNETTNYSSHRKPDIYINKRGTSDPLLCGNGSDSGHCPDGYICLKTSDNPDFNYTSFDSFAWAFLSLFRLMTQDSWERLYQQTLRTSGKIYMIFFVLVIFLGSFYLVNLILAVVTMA
Chain of human Nav 1.8 (Q9Y5Y9 660-890 limits assumed): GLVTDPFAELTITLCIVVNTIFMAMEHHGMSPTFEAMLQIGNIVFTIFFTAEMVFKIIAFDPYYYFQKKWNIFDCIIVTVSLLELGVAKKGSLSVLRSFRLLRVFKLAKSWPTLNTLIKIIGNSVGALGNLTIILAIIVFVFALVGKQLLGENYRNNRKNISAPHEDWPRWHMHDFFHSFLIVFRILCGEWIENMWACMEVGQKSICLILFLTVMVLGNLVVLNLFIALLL
Chain of human Nav 1.8 (Q9Y5Y9 1148-1722 limits assumed): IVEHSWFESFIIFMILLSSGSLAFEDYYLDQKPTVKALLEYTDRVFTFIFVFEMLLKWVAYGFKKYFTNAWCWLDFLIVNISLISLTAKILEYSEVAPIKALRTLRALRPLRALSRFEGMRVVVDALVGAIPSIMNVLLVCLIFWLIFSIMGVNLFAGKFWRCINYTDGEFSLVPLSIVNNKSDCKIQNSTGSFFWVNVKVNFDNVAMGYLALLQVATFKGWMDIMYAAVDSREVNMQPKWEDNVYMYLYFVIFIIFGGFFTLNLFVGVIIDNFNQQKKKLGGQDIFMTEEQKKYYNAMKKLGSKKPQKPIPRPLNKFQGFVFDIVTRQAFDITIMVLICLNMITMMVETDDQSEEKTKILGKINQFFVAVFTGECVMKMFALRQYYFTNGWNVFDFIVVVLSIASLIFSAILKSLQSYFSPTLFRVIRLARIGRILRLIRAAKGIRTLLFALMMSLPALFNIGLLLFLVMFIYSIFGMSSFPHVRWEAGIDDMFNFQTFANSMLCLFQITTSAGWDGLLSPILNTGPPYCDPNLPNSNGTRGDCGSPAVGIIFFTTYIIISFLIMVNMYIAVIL

In the case of `COc1c([C@H]2[C@H](C(=O)Nc3ccnc(C(=O)N(C)CCN(C)C)c3)O[C@@](C)(C(F)(F)F)[C@H]2C)ccc(F)c1F` [Compound 273, 4-((2R,3S,4S,5R)-3-(3,4-difluoro-2-methoxyphenyl)-4,5-dimethyl-5-(trifluoromethyl)tetrahydrofuran-2-carboxamido)-N-(2-(dimethylamino)ethyl)-N-methylpicolinamide], the IC50 is reported as < 10 nM.

With `COc1c([C@H]2[C@H](C(=O)Nc3ccnc(C(=O)N4CCN(C)C[C@H]4C)c3)O[C@@](C)(C(F)(F)F)[C@H]2C)ccc(F)c1F` [Compound 274, (2R,3S,4S,5R)-3-(3,4-difluoro-2-methoxyphenyl)-N-(2-((R)-2,4-dimethylpiperazine-1-carbonyl)pyridin-4-yl)-4,5-dimethyl-5-(trifluoromethyl)tetrahydrofuran-2-carboxamide] the IC50 was < 10 nM.

In the case of `COc1c([C@H]2[C@H](C(=O)Nc3ccnc(C(=O)NC4CN(C)C4)c3)O[C@@](C)(C(F)(F)F)[C@H]2C)ccc(F)c1F` [Compound 275, 4-((2R,3S,4S,5R)-3-(3,4-difluoro-2-methoxyphenyl)-4,5-dimethyl-5-(trifluoromethyl)tetrahydrofuran-2-carboxamido)-N-(1-methylazetidin-3-yl)picolinamide], the IC50 is reported as 10 to 100 nM.

`COc1c([C@H]2[C@H](C(=O)Nc3ccnc(C(=O)N4C5CC4CN(C)C5)c3)O[C@@](C)(C(F)(F)F)[C@H]2C)ccc(F)c1F` [Compound 276, (2R,3S,4S,5R)-3-(3,4-difluoro-2-methoxyphenyl)-4,5-dimethyl-N-(2-(3-methyl-3,6-diazabicyclo[3.1.1]heptane-6-carbonyl)pyridin-4-yl)-5-(trifluoromethyl)tetrahydrofuran-2-carboxamide] gave an IC50 of 10 to 100 nM.

`COc1c([C@H]2[C@H](C(=O)Nc3ccnc(C(=O)N[C@H]4CCN(C)C4)c3)O[C@@](C)(C(F)(F)F)[C@H]2C)ccc(F)c1F` [Compound 277, 4-((2R,3S,4S,5R)-3-(3,4-difluoro-2-methoxyphenyl)-4,5-dimethyl-5-(trifluoromethyl)tetrahydrofuran-2-carboxamido)-N-((S)-1-methylpyrrolidin-3-yl)picolinamide] was tested, and the IC50 was 10 to 100 nM.

With `COc1c([C@H]2[C@H](C(=O)Nc3ccnc(C(=O)N4CC5CC(C4)N5C)c3)O[C@@](C)(C(F)(F)F)[C@H]2C)ccc(F)c1F` [Compound 278, (2R,3S,4S,5R)-3-(3,4-difluoro-2-methoxyphenyl)-4,5-dimethyl-N-(2-(6-methyl-3,6-diazabicyclo[3.1.1]heptane-3-carbonyl)pyridin-4-yl)-5-(trifluoromethyl)tetrahydrofuran-2-carboxamide] the IC50 was < 10 nM.

With `COc1c([C@H]2[C@H](C(=O)Nc3ccnc(C(=O)N4C[C@H]5C[C@@H]4CN5C)c3)O[C@@](C)(C(F)(F)F)[C@H]2C)ccc(F)c1F` [Compound 279, (2R,3S,4S,5R)-3-(3,4-difluoro-2-methoxyphenyl)-4,5-dimethyl-N-(2-((1R,4R)-5-methyl-2,5-diazabicyclo[2.2.1]heptane-2-carbonyl)pyridin-4-yl)-5-(trifluoromethyl)tetrahydrofuran-2-carboxamide] the IC50 was 10 to 100 nM.

With `COc1c([C@H]2[C@H](C(=O)Nc3ccnc(C(=O)N4CCN(C)C(C)(C)C4)c3)O[C@@](C)(C(F)(F)F)[C@H]2C)ccc(F)c1F` [Compound 280, (2R,3S,4S,5R)-3-(3,4-difluoro-2-methoxyphenyl)-4,5-dimethyl-5-(trifluoromethyl)-N-(2-(3,3,4-trimethylpiperazine-1-carbonyl)pyridin-4-yl)tetrahydrofuran-2-carboxamide] the IC50 was < 10 nM.

`COc1c([C@H]2[C@H](C(=O)Nc3ccnc(C(=O)N[C@H]4CN(C)C[C@@H]4OC)c3)O[C@@](C)(C(F)(F)F)[C@H]2C)ccc(F)c1F` [Compound 281, 4-((2R,3S,4S,5R)-3-(3,4-difluoro-2-methoxyphenyl)-4,5-dimethyl-5-(trifluoromethyl)tetrahydrofuran-2-carboxamido)-N-((3S,4S)-4-methoxy-1-methylpyrrolidin-3-yl)picolinamide] showed an IC50 of 10 to 100 nM.

With `COc1c([C@H]2[C@H](C(=O)Nc3ccnc(C(=O)N4CCO[C@H]5CN(C)C[C@H]54)c3)O[C@@](C)(C(F)(F)F)[C@H]2C)ccc(F)c1F` [Compound 282, (2R,3S,4S,5R)-3-(3,4-difluoro-2-methoxyphenyl)-4,5-dimethyl-N-(2-((4aR,7aS)-6-methyloctahydropyrrolo[3,4-b][1,4]oxazine-4-carbonyl)pyridin-4-yl)-5-(trifluoromethyl)tetrahydrofuran-2-carboxamide] the IC50 was < 10 nM.

`COc1c([C@H]2[C@H](C(=O)Nc3ccnc(C(=O)N4C[C@H]5CC[C@@H](C4)N(C)C5)c3)O[C@@](C)(C(F)(F)F)[C@H]2C)ccc(F)c1F` [Compound 283, (2R,3S,4S,5R)-3-(3,4-difluoro-2-methoxyphenyl)-4,5-dimethyl-N-(2-((1S,5S)-6-methyl-3,6-diazabicyclo[3.2.2]nonane-3-carbonyl)pyridin-4-yl)-5-(trifluoromethyl)tetrahydrofuran-2-carboxamide] was tested, and the IC50 was < 10 nM.

`COc1c([C@H]2[C@H](C(=O)Nc3ccnc(C(=O)N4CC5COCC(C4)N5C)c3)O[C@@](C)(C(F)(F)F)[C@H]2C)ccc(F)c1F` [Compound 284, (2R,3S,4S,5R)-3-(3,4-difluoro-2-methoxyphenyl)-4,5-dimethyl-N-(2-(9-methyl-3-oxa-7,9-diazabicyclo[3.3.1]nonane-7-carbonyl)pyridin-4-yl)-5-(trifluoromethyl)tetrahydrofuran-2-carboxamide] was tested, and the IC50 was < 10 nM.

Molecule `COc1c([C@H]2[C@H](C(=O)Nc3ccnc(C(=O)N[C@H]4CN(C)CC[C@H]4OC)c3)O[C@@](C)(C(F)(F)F)[C@H]2C)ccc(F)c1F` [Compound 285, 4-((2R,3S,4S,5R)-3-(3,4-difluoro-2-methoxyphenyl)-4,5-dimethyl-5-(trifluoromethyl)tetrahydrofuran-2-carboxamido)-N-((3S,4R)-4-methoxy-1-methylpiperidin-3-yl)picolinamide] has an IC50 of 100 to 1000 nM.

For `COc1c([C@H]2[C@H](C(=O)Nc3ccnc(C(=O)N(C)[C@H]4CN(C)C[C@@H]4OC)c3)O[C@@](C)(C(F)(F)F)[C@H]2C)ccc(F)c1F` [Compound 286, 4-((2R,3S,4S,5R)-3-(3,4-difluoro-2-methoxyphenyl)-4,5-dimethyl-5-(trifluoromethyl)tetrahydrofuran-2-carboxamido)-N-((3S,4S)-4-methoxy-1-methylpyrrolidin-3-yl)-N-methylpicolinamide], the IC50 was < 10 nM.

In the case of `COC[C@H]1CN(C(=O)c2cc(NC(=O)[C@@H]3O[C@@](C)(C(F)(F)F)[C@@H](C)[C@H]3c3ccc(F)c(F)c3OC)ccn2)CCN1C` [Compound 287, (2R,3S,4S,5R)-3-(3,4-difluoro-2-methoxyphenyl)-N-(2-((R)-3-(methoxymethyl)-4-methylpiperazine-1-carbonyl)pyridin-4-yl)-4,5-dimethyl-5-(trifluoromethyl)tetrahydrofuran-2-carboxamide], the IC50 is reported as < 10 nM.

`COc1c([C@H]2[C@H](C(=O)Nc3ccnc(C(=O)N4CCN(C)[C@H](C)C4)c3)O[C@@](C)(C(F)(F)F)[C@H]2C)ccc(F)c1F` [Compound 288, (2R,3S,4S,5R)-3-(3,4-difluoro-2-methoxyphenyl)-N-(2-((R)-3,4-dimethylpiperazine-1-carbonyl)pyridin-4-yl)-4,5-dimethyl-5-(trifluoromethyl)tetrahydrofuran-2-carboxamide] was tested, and the IC50 was < 10 nM.

`COc1c([C@H]2[C@H](C(=O)Nc3ccnc(C(=O)N4C[C@@H](C)N(C)C[C@H]4C)c3)O[C@@](C)(C(F)(F)F)[C@H]2C)ccc(F)c1F` [Compound 289, (2R,3S,4S,5R)-3-(3,4-difluoro-2-methoxyphenyl)-4,5-dimethyl-5-(trifluoromethyl)-N-(2-((2R,5R)-2,4,5-trimethylpiperazine-1-carbonyl)pyridin-4-yl)tetrahydrofuran-2-carboxamide] showed an IC50 of 10 to 100 nM.

For `COc1c([C@H]2[C@H](C(=O)Nc3ccnc(C(=O)N[C@H]4C[C@@H](C)CN(C)C4)c3)O[C@@](C)(C(F)(F)F)[C@H]2C)ccc(F)c1F` [Compound 290, 4-((2R,3S,4S,5R)-3-(3,4-difluoro-2-methoxyphenyl)-4,5-dimethyl-5-(trifluoromethyl)tetrahydrofuran-2-carboxamido)-N-((3S,5R)-1,5-dimethylpiperidin-3-yl)picolinamide], the IC50 was 100 to 1000 nM.

Work on `CCO[C@H]1CN(C)C[C@@H]1NC(=O)c1cc(NC(=O)[C@@H]2O[C@@](C)(C(F)(F)F)[C@@H](C)[C@H]2c2ccc(F)c(F)c2OC)ccn1` [Compound 291, 4-((2R,3S,4S,5R)-3-(3,4-difluoro-2-methoxyphenyl)-4,5-dimethyl-5-(trifluoromethyl)tetrahydrofuran-2-carboxamido)-N-((3S,4S)-4-ethoxy-1-methylpyrrolidin-3-yl)picolinamide] yielded an IC50 of 100 to 1000 nM.

With `CN[C@H]1CN(C(=O)c2cc(NC(=O)[C@@H]3O[C@@](C)(C(F)(F)F)[C@@H](C)[C@H]3c3ccc(F)c(F)c3OC)ccn2)C[C@H]1F` [Compound 292, (2R,3S,4S,5R)-3-(3,4-difluoro-2-methoxyphenyl)-N-(2-((3R,4S)-3-fluoro-4-(methylamino)pyrrolidine-1-carbonyl)pyridin-4-yl)-4,5-dimethyl-5-(trifluoromethyl)tetrahydrofuran-2-carboxamide] the IC50 was < 10 nM.

For `COc1c([C@H]2[C@H](C(=O)Nc3ccnc(C(=O)N4C[C@H](OC)[C@@H](N(C)C)C4)c3)O[C@@](C)(C(F)(F)F)[C@H]2C)ccc(F)c1F` [Compound 293, (2R,3S,4S,5R)-3-(3,4-difluoro-2-methoxyphenyl)-N-(2-((3S,4S)-3-(dimethylamino)-4-methoxypyrrolidine-1-carbonyl)pyridin-4-yl)-4,5-dimethyl-5-(trifluoromethyl)tetrahydrofuran-2-carboxamide], the IC50 was < 10 nM.
